# Measurements taken from patent US7462605B2, “Phosphoramidate compounds and methods of use” (Celmed Oncology (USA), Inc., priority 2002, dated 2008).
# Read-outs that look alike come from different tables or passages of the source.
# Legend:
# [1] = tested on: NPRSC (Prostate) normal cells; assay: alamarBlue growth inhibition, NPRSC; format: cell-based, human; details: Homo sapiens, 120 hours
# Protocol: (§1) Growth Inhibition Studies. Cells growing exponentially were transferred to 384-well flat bottom tissue culture plates. All cell types were plated at a density of 500 cells per well in 25 μL of complete medium (RPMI 1640+10% fetal bovine serum+antibiotics/antimycotics). After 24 hours (day 0), 25 μL of complete medium containing the experimental compounds over the dose range of 10^ñ3 to 10^ñ10 M were added in triplicate. […] 5 μL of the redox indicator, alamarBlue, was added to each well (10% v/v). After 4 hours incubation at 37° C., fluorescence was monitored at 535 nm excitation and 595 nm emission.
# (§2) Concentration vs. relative fluorescence units (RFU) were plotted, and sigmoid curves were fit using the Hill equation.
# [2] = tested on: H527 (Skin) normal cells; assay: alamarBlue growth inhibition, H527; format: cell-based, human; details: Homo sapiens, 120 hours
# Protocol: as §1, §2
# [3] = tested on: NHLF (Lung) normal cells; assay: alamarBlue growth inhibition, NHLF; format: cell-based, human; details: Homo sapiens, 120 hours
# Protocol: as §1, §2
# [4] = tested on: NHA (Brain) normal cells; assay: alamarBlue growth inhibition, NHA; format: cell-based, human; details: Homo sapiens, 120 hours
# Protocol: as §1, §2
# [5] = tested on: PANC1 (Pancreas) tumor cells; assay: alamarBlue growth inhibition, PANC1; format: cell-based, human; details: Homo sapiens, PANC-1, 120 hours
# Protocol: as §1, §2
# [6] = tested on: DET551 (Skin) normal cells; assay: alamarBlue growth inhibition, DET551; format: cell-based, human; details: Homo sapiens, 120 hours
# Protocol: as §1, §2
# [7] = tested on: SKOV3 (Ovary) tumor cells; assay: alamarBlue growth inhibition, SKOV3; format: cell-based, human; details: Homo sapiens, SK-OV-3, 120 hours
# Protocol: as §1, §2
# [8] = tested on: CCD18co normal colon epithelial cells; assay: alamarBlue growth inhibition, CCD18co; format: cell-based, human; details: Homo sapiens, CCD-18Co; Normal Cells: CCD1800 (Colon); alamarBlue, 120 hours
# Protocol: as §1, §2
# [9] = tested on: MDAMB361 (Breast) tumor cells; assay: alamarBlue growth inhibition, MDAMB361; format: cell-based, human; details: Homo sapiens, MDA-MB-361, 120 hours
# Protocol: as §1, §2
# [10] = tested on: NHDF (Skin) normal cells; assay: alamarBlue growth inhibition, NHDF; format: cell-based, human; details: Homo sapiens, 120 hours
# Protocol: as §1, §2
# [11] = tested on: SOAS2 (Bone) tumor cells; assay: alamarBlue growth inhibition, SOAS2; format: cell-based, human; details: Homo sapiens, 120 hours
# Protocol: as §1, §2
# [12] = tested on: HT1080 (Colon) tumor cells; assay: alamarBlue growth inhibition, HT1080; format: cell-based, human; details: Homo sapiens, HT-1080, 120 hours
# Protocol: as §1, §2
# [13] = tested on: normal and tumor cell types; assay: cells; details: Homo sapiens
# Protocol: Growth Inhibition Studies. Cells growing exponentially were transferred to 384-well flat bottom tissue culture plates. All cell types were plated at a density of 500 cells per well in 25 μL of complete medium (RPMI 1640+10% fetal bovine serum+antibiotics/antimycotics). After 24 hours (day 0), 25 μL of complete medium containing the experimental compounds over the dose range of 10^ñ3 to 10^ñ10 M were added in triplicate. Drug exposure time was 120 hours (day 5), after which growth inhibition was assayed. 5 μL of the redox indicator, alamarBlue, was added to each well (10% v/v). After 4 hours incubation at 37° C., fluorescence was monitored at 535 nm excitation and 595 nm emission.
# as §2
# Assays were carried out as described in Methods, above. Therapeutic index is calculated as the ratio of the average IC50 for normal cells to the average IC50 for tumor cells. All assays were done at least three times.
# [14] = tested on: HEPG2 (Liver) tumor cells; assay: alamarBlue growth inhibition, HEPG2; format: cell-based, human; details: Homo sapiens, 120 hours
# Protocol: as §1, §2
# [15] = tested on: SKLU1 (Lung) tumor cells; assay: alamarBlue growth inhibition, SKLU1; format: cell-based, human; details: Homo sapiens, SK-LU-1, 120 hours
# Protocol: as §1, §2
# [16] = tested on: NHEPF (Liver) normal cells; assay: alamarBlue growth inhibition, NHEPF; format: cell-based, human; details: Homo sapiens, 120 hours
# Protocol: as §1, §2
# [17] = tested on: SKCO1 (Colon) tumor cells; assay: alamarBlue growth inhibition, SKCO1; format: cell-based, human; details: Homo sapiens, SK-CO-1, 120 hours
# Protocol: as §1, §2
# [18] = tested on: NCI H520 (Lung) tumor cells; assay: alamarBlue growth inhibition, NCI H520; format: cell-based, human; details: Homo sapiens, 120 hours
# Protocol: as §1, §2
# [19] = tested on: COLO320 (Colon) tumor cells; assay: alamarBlue growth inhibition, COLO320; format: cell-based, human; details: Homo sapiens, COLO 320, 120 hours
# Protocol: as §1, §2
# [20] = tested on: COLO205 (Colon) tumor cells; assay: alamarBlue growth inhibition, COLO205; format: cell-based, human; details: Homo sapiens, COLO 205, 120 hours
# Protocol: as §1, §2
# [21] = tested on: MRC9 (Lung) normal cells; assay: alamarBlue growth inhibition, MRC9; format: cell-based, human; details: Homo sapiens, 120 hours
# Protocol: as §1, §2
# [22] = tested on: W138 (Lung) normal cells; assay: alamarBlue growth inhibition, W138; format: cell-based, human; details: Homo sapiens, 120 hours
# Protocol: as §1, §2
# [23] = tested on: MCIxc (Brain) tumor cells; assay: alamarBlue growth inhibition, MCIxc; format: cell-based, human; details: Homo sapiens, MC-IXC, 120 hours
# Protocol: as §1, §2
# [24] = tested on: SW527 (Breast) tumor cells; assay: alamarBlue growth inhibition, SW527; format: cell-based, human; details: Homo sapiens, 120 hours
# Protocol: as §1, §2
# [25] = tested on: A431 (Skin) tumor cells; assay: alamarBlue growth inhibition, A431; format: cell-based, human; details: Homo sapiens, A-431, 120 hours
# Protocol: as §1, §2
# [26] = tested on: MDAMB468 (Breast) tumor cells; assay: alamarBlue growth inhibition, MDAMB468; format: cell-based, human; details: Homo sapiens, MDA-MB-468, 120 hours
# Protocol: as §1, §2
# [27] = tested on: H630R10 5FU-resistant colon tumor cells; assay: alamarBlue growth inhibition, H630R10; format: cell-based, human; details: Homo sapiens; Tumor Cells: H630R10 (Colon); alamarBlue, 120 hours; read-out: IC50
# Protocol: as §1, §2
# [28] = H630-10 5-FU resistant colon carcinoma xenografts in athymic mice; details: female, CD-1 (nu/nu) athymic, mouse, in vivo, ip
# Protocol: Tumor measurements began on the first day of treatment (Day 1).
# Following cell expansion ex-vivo H630-10 were injected subcutaneously (S.Q.) at 1.5×10^7 cells/tumor in the mid-back region of 4-6 week old, female, CD-1 (nu/nu), athymic mice (Charles River Laboratories, Wilmington, Mass.). Tumor volumes, calculated as the product of length, width, and depth, were monitored twice weekly by serial micrometer measurements by a single observer. Six animals were randomly assigned to each treatment group and statistical tests were performed (single-factor ANOVA) to assure uniformity in starting tumor volumes between treatment and control groups at the beginning of the experiment. […] To assure accurate dosing, drug doses were individualized based upon animal weights determined immediately prior to each injection. […] Differences in day 25 xenograft volumes between groups were analyzed by single-factor ANOVA of the log transformed tumor volume data.
# [29] = tested on: SW620 (Colon) tumor cells; assay: alamarBlue growth inhibition, SW620; format: cell-based, human; details: Homo sapiens, SW-620, 120 hours
# Protocol: as §1, §2
# [30] = tested on: HCTC (Colon) tumor cells; assay: alamarBlue growth inhibition, HCTC; format: cell-based, human; details: Homo sapiens, 120 hours
# Protocol: as §1, §2
# [31] = tested on: SKHEP1 (Liver) tumor cells; assay: alamarBlue growth inhibition, SKHEP1; format: cell-based, human; details: Homo sapiens, SK-HEP1, 120 hours
# Protocol: as §1, §2
# [32] = tested on: NHOST (Bone) normal cells; assay: alamarBlue growth inhibition, NHOST; format: cell-based, human; details: Homo sapiens, 120 hours
# Protocol: as §1, §2
# [33] = tested on: PC3 (Prostate) tumor cells; assay: alamarBlue growth inhibition, PC3; format: cell-based, human; details: Homo sapiens, 120 hours
# Protocol: as §1, §2
# [34] = tested on: MCF7TDX cells; assay: 384-well interaction screening assay (alamarBlue) with NB1011, MCF7TDX; format: cell-based, human; details: drug combined with NB1011, MCF7TDX, 384-well alamarBlue, 5-day
# Protocol: Cell lines: Normal human colon epithelial cells (CCD18co) and skin fibroblasts (Det55 1) were purchased from ATCC (Rockville,Md.). MCF7TDX, human breast carcinoma cells resistant to 2 μM Tomudex were obtained from Dr. Patrick Johnston, Queens University, Belfast. […] The MCF7TDX and the H630R10 cell lines have been previously described in Drake, J. C. et al. (1996) and Copur, S. et al. (1995) respectively.
# Culture Conditions: All cells were cultured under standard conditions of 37° C., 95% humidified air, 5% CO2 in RPMI 1640 culture medium containing 10% fetal calf serum (Life Technologies) and penicillin/streptomycin/fungizone. […] The medium was renewed or the cells were passaged about every three days to maintain optimal growth conditions. […]
# Cytotoxicity Studies: 384-well interaction screening assay. […] Following a 5-day incubation, the redox indicator dye, alamarBlue (AccuMed International, Westlake, Ohio) was added to each well at a 10% v/v ratio, and fluorescence was monitored at 535 excitation, 595 emission. Cytotoxic effect levels and drug interactions were assessed by the combination index method (Chou, T. C. and Talalay, P. (1984) and Bible, K. C. et al. (1997)), described briefly below. […] Sigmoid curves were fit according to the Hill inhibitory Emax model, and IC50 calculated as the average of three or more separate determinations. […]
# [35] = tested on: C/HT1080 cells; assay: alamarBlue cytotoxicity, control-transfected HT1080; format: cell-based, human; details: C/HT1080, TS Level 100%
# Protocol: (§3) Cell lines and transfection. HT1080 cells were grown in PRM11640 medium supplemented with 10% fetal calf serum, and transfected with GFP-TS expression vector. 48 hours after, transfection cells were tripsinized and replated in culture medium containing 750 μg/ml G418. After selection with G418 for two weeks, surviving cells were sorted based upon fluorescence expression. One clone with higher fluorescence expression (named as TSH/HT1080) and one clone with lower fluorescence expression (named as TSL/HT1080) were selected and expanded into cells lines. The stable HT1080 cells transfected with pEGFP-C3 were used as control.
# (§4) Construction of GFP-TS expression vector. […] The cDNA was cloned into HindIII and KpnI sites of mammalian expression vector pEGFP-C3 (Clontech Laboratories. Inc., Palo Alto, Calif.), in-frame with GFP sequence. The cDNA insert was confirmed by DNA sequencing.
# (§5) Growth Inhibition Studies. Cells growing exponentially were transferred to 384-well flat bottom tissue culture plates. All cell types were plated at a density of 500 cells per well in 25 μL of complete medium (RPMI 1640+10% fetal bovine serum+antibiotics/antimycotics). […] After 4 hours incubation at 37° C., fluorescence was monitored at 535 nm excitation and 595 nm emission.
# as §2
# [36] = tested on: CCD18co normal colon epithelial cells; assay: Thymidine rescue, alamarBlue cytotoxicity; format: cell-based, human
# Source text: An additional approach was taken to understanding whether NB1011 might interfere with cell growth primarily by inactivating TS. This approach is based upon thymidine rescue of TS-blocked cells. […] For this reason, they survive only by scavenger mechanisms. One of the important scavenger mechanisms is utilization of extracellular thymidine. Thymidine incorporated by target cells can be converted to dTMP, usually by thymidine kinase, and thus continue DNA synthesis. Other pathways for use of exogenous thymidine have also been described If an important mechanism for NB1011 activity is via inhibition of endogenous TS, then the cytotoxicity should be relieved when thymidine is added to the cell culture media. For this experiment, a number of tumor cell lines were screened for their sensitivity to Tomudex and 5FdUrd, and ability to be rescued from these agents via thymidine supplementation. […] Experiments were carried out as described by (Patterson, et al. (1998)) with or without 10 μM thymidine, except that the alamarBlue assay was employed to determine cytotoxicity.
# [37] = tested on: TSL/HT1080 cells; assay: alamarBlue cytotoxicity, HT1080 expressing low GFP-TS; format: cell-based, human; details: TSL/HT1080, TS Level 409%
# Protocol: as §3, §4, §5, §2
# [38] = tested on: TSH/HT1080 cells; assay: alamarBlue cytotoxicity, HT1080 expressing high GFP-TS; format: cell-based, human; details: second line printed TSL/HT1080, TS Level 702%
# Protocol: as §3, §4, §5, §2
compound,measurement,setting,value
"O=c1[nH]cc(F)c(=O)[nH]1 [5FU, 5-fluorouracil]",IC50,[1],1700 nM
same,IC50,[2],1600 nM
same,IC50,[3],900 nM
same,IC50,[4],900 nM
same,IC50,[5],1900 nM
same,IC50,[6],800 nM
same,IC50,[7],3000 nM
same,IC50,[8],2000 nM
same,IC50,[9],5 µM
same,IC50,[10],800 nM
same,IC50,[11],1400 nM
same,IC50,[12],800 nM
same,IC50,"[13]; read-out: IC50 (μM), Average, average of the 11 normal cell types",1.6 µM
same,IC50,"[13]; read-out: IC50 (μM), Average, average of the 21 tumor cell lines",5.3 µM
same,IC50,[14],22.8 µM
same,IC50,[15],7.9 µM
same,IC50,[16],1700 nM
same,IC50,[17],1400 nM
same,IC50,[18],600 nM
same,IC50,[19],1500 nM
same,IC50,[20],1300 nM
same,IC50,[21],1100 nM
same,IC50,[22],1000 nM
same,IC50,[23],1200 nM
same,IC50,[24],4.3 µM
same,IC50,[25],200 nM
same,IC50,[26],4.4 µM
same,IC50,[27],41.6 µM
same,MTD at 5 days,[28],15 mg/kg
same,IC50,[29],4.6 µM
same,IC50,[30],2800 nM
same,IC50,[31],1700 nM
same,IC50,[32],4.7 µM
same,IC50,[33],900 nM
N.N.[Cl][Pt][Cl] [Cisplatin],Combination Index ± s.e.m.,[34],1.51 ± 0.35
O=c1[nH]c(=O)n([C@H]2C[C@H](O)[C@@H](CO)O2)cc1F [FUDR],IC50,[35],< 100 nM
same,IC50,[36]; in the presence of 10 μM thymidine,> 5900 nM
same,IC50,[36]; without thymidine,< 10 nM
same,IC50,[37],2200 nM
same,IC50,[38],3.1 µM
CCc1c2c(nc3ccc(OC(=O)N4CCC(N5CCCCC5)CC4)cc13)-c1cc3c(c(=O)n1C2)COC(=O)[C@]3(O)CC [Irinotecan],Combination Index ± s.e.m.,[34],1.36 ± 0.38
